According to ChEMBL document CHEMBL1125660, “Synthesis and aromatase inhibitory activity of novel 1-(4-aminophenyl)-3-azabicyclo[3.1.0]hexane- and -[3.1.1]heptane-2,4- diones” (J Med Chem, 1991):

Columns and labels:
[1] = target: T1, Steroid 17-alpha-hydroxylase/17,20 lyase (Homo sapiens, UniProt P05093); assay type: functional
T1 sequence (P05093 whole entry): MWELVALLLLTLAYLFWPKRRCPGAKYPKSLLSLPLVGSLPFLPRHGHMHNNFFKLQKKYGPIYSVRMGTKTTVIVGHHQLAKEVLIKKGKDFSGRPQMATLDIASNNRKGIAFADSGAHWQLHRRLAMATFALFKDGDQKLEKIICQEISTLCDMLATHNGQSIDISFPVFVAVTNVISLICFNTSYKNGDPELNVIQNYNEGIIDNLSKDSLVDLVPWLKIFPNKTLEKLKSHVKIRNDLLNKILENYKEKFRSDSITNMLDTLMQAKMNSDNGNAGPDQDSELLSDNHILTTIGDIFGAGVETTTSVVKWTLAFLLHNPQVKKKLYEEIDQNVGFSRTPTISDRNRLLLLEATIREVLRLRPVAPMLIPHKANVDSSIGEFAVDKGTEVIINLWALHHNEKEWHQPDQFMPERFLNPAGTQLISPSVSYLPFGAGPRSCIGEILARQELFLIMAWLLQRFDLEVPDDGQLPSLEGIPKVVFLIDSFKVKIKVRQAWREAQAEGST

[2] = target: T2, Cytochrome P450 11B2, mitochondrial (Rattus norvegicus, UniProt P30099)
T2 sequence (P30099 whole entry): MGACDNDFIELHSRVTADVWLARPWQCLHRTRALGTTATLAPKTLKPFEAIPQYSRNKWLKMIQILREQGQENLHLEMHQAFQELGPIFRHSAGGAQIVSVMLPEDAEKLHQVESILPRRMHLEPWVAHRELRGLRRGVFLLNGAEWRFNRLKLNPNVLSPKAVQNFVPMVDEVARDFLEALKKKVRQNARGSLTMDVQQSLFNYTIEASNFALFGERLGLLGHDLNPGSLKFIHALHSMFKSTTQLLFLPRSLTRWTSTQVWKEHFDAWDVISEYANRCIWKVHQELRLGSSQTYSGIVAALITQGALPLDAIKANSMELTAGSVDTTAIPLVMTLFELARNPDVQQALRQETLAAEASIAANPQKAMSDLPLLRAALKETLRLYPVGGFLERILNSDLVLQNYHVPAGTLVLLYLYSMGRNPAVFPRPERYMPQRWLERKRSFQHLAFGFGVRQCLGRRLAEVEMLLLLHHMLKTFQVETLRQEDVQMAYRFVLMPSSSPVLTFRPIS

[3] = target: T3, Aromatase (Rattus norvegicus, UniProt P22443); conditions: in vivo, po
T3 sequence (P22443 whole entry): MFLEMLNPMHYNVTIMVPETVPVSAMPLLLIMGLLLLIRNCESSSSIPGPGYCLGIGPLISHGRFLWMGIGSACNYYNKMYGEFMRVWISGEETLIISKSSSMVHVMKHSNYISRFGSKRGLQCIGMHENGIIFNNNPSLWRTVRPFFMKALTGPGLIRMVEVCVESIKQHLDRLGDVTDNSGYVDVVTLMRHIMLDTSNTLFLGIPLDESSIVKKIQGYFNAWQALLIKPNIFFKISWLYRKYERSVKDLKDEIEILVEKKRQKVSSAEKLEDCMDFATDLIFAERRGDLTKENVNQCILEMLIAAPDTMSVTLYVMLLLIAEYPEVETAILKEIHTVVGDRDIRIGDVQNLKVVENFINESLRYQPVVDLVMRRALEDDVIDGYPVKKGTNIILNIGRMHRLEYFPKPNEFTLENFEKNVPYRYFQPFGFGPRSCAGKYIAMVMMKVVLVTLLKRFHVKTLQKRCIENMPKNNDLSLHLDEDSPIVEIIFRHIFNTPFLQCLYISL

[4] = species on record: Rattus norvegicus; assay type: functional; conditions: dose 31.3 mg/kg; route oral
[5] = species on record: Rattus norvegicus; assay type: functional; conditions: dose 62.5 mg/kg; route oral
[6] = species on record: Rattus norvegicus; assay type: functional; conditions: dose 125 mg/kg; route oral
[7] = species on record: Rattus norvegicus; assay type: functional; conditions: dose 15.6 mg/kg; route oral
[8] = species on record: Rattus norvegicus; assay type: functional; conditions: dose 125 mg/kg; route oral; remark: listed apart in the source
[9] = species on record: Rattus norvegicus; assay type: functional; conditions: dose 15.6 mg/kg; route oral; remark: listed apart in the source
[10] = species on record: Rattus norvegicus; assay type: functional; conditions: dose 62.5 mg/kg; route oral; remark: listed apart in the source
[11] = species on record: Rattus norvegicus; assay type: functional; conditions: dose 125 mg/kg; route oral; remark: listed apart in the source
[12] = species on record: Rattus norvegicus; assay type: functional; conditions: dose 25.6 mg/kg; route oral
[13] = species on record: Rattus norvegicus; assay type: functional; conditions: dose 31.3 mg/kg; route oral; remark: listed apart in the source
[14] = species on record: Rattus norvegicus; assay type: functional; conditions: dose 62.5 mg/kg; route oral; remark: listed apart in the source
[15] = species on record: Rattus norvegicus; assay type: functional; conditions: dose 31.3 mg/kg
[16] = species on record: Rattus norvegicus; assay type: functional; conditions: dose 62.5 mg/kg; route oral; remark: listed apart in the source
[17] = species on record: Rattus norvegicus; assay type: functional; conditions: dose 12.5 mg/kg
[18] = species on record: Rattus norvegicus; assay type: functional; conditions: dose 15.6 mg/kg
[19] = species on record: Rattus norvegicus; assay type: functional; conditions: dose 31.3 mg/kg; remark: listed apart in the source
[20] = species on record: Rattus norvegicus; assay type: functional; conditions: dose 62.5 mg/kg
[21] = species on record: Rattus norvegicus; assay type: functional
[22] = species on record: Rattus norvegicus; assay type: functional; conditions: dose 15.6 mg/kg; remark: listed apart in the source
[23] = species on record: Rattus norvegicus; assay type: functional; conditions: dose 31.3 mg/kg; route oral; remark: listed apart in the source
[24] = target: T2, Cytochrome P450 11B2, mitochondrial; remark: listed apart in the source
[25] = target: T1, Steroid 17-alpha-hydroxylase/17,20 lyase; assay type: functional; remark: listed apart in the source
[26] = target: T2, Cytochrome P450 11B2, mitochondrial; remark: listed apart in the source
[27] = target: T3, Aromatase; conditions: in vivo, po; remark: listed apart in the source
[28] = species on record: Rattus norvegicus; assay type: functional; conditions: dose 100 mg/kg; route oral
[29] = species on record: Rattus norvegicus; assay type: functional; conditions: dose 30 mg/kg; route oral
[30] = species on record: Rattus norvegicus; assay type: functional; conditions: dose 100 mg/kg; route oral; remark: listed apart in the source
[31] = species on record: Rattus norvegicus; assay type: functional; conditions: dose 30 mg/kg; route oral; remark: listed apart in the source
[32] = species on record: Rattus norvegicus; assay type: functional; conditions: dose 100 mg/kg; route oral; remark: listed apart in the source
[33] = species on record: Rattus norvegicus; assay type: functional; conditions: dose 30 mg/kg; route oral; remark: listed apart in the source
[34] = species on record: Rattus norvegicus; assay type: functional; conditions: dose 30 mg/kg
[35] = species on record: Rattus norvegicus; assay type: functional; remark: listed apart in the source
[36] = species on record: Rattus norvegicus; assay type: functional; conditions: dose 30 mg/kg; route oral; remark: listed apart in the source
[37] = species on record: Rattus norvegicus; assay type: functional; conditions: dose 100 mg/kg
[38] = target: T2, Cytochrome P450 11B2, mitochondrial; remark: listed apart in the source

SMILES: Nc1ccc(C23CC(C2)C(=O)N(C2CCCCC2)C3=O)cc1
- IC50 [1]: 140 µM
- IC50 [2]: 140 µM
- ED [3]: 0.3 mg/kg

SMILES: Nc1ccc(C23CC2C(=O)N(CC2CCCCC2)C3=O)cc1 (stereo unspecified)
- IC50 [1]: > 330 µM
- Response [4]: 55%
- Response [5]: 4.1%
- Response [6]: 5%
- Response [7]: 78.3%
- Response [8]: 0%
- Response [9]: 17.4%
- Response [10]: 4.2%
- Response [11]: 82.6%
- Response [12]: 4.3%
- Response [13]: 15%
- Response [14]: 91.6%
- No. of tumors [15]: 20
- No. of tumors [16]: 24
- New tumors [17]: 0
- New tumors [18]: 3
- New tumors [19]: 3
- New tumors [20]: 0
- No. of tumors [21]: 23
- No. of tumors [22]: 23
- Response [23]: 30%
- IC50 [24]: > 330 µM
- ED [3]: 1.5 mg/kg

SMILES: Nc1ccc(C23CC2C(=O)N(CC2CCCCC2)C3=O)cc1 (stereo in doubt; (+)-1h)
- IC50 [25]: > 34 µM
- IC50 [26]: > 34 µM
- ED [27]: 1 mg/kg

SMILES: CCC1(c2ccc(N)cc2)CCC(=O)NC1=O (stereo unspecified) [AMINOGLUTETHIMIDE]
- IC50 [25]: 60 µM
- Response [28]: 66.6%
- Response [29]: 91.6%
- Response [30]: 22.2%
- Response [31]: 4.1%
- Response [32]: 11.2%
- Response [33]: 4.25%
- New tumors [34]: 4
- No. of tumors [35]: 18
- No. of tumors [36]: 24
- New tumors [37]: 5
- IC50 [38]: 110 µM
